Experimental data from patent publication US12042492B2 (priority 2020, dated 2024).
“Also recorded” adds a separate entry of the source. Marks after values point to notes of the source that are not given here.

Experiments:
[1] = system: Aβ40 and Aβ42 levels in mAPP N2a cells; assay: Sandwich ELISA of soluble Aβ40 and Aβ42 levels in mAPP N2a cells; format: cell-based, mouse; conditions: ligand 1-treated mAPP N2a cells vs untreated mAPP cells
Source text: ELISA Ligand based inhibition of BACE1 activity, Aβ 40 and 42. BACE1 activity, Levels of Aβ40 and 42. To determine whether ligand 1 lowers BACE1 activity and reducing the Aβ40 and Aβ42 levels, the inventors measured BACE1 activity, Aβ40 and Aβ42 levels in mutant APP cells (N2a+mutant cDNA transfected) treated with ligand 1 using Sandwich ELISA.
The N2a cells grown for 6 days in a serum-free medium (1:1 mixture of DMEM and OptiMEM, plus penicillin and streptomycin (Invitrogen, Carlsbad, CA, USA) until the cells developed neuronal processes. As shown in (FIG. 10), these cells were used for 4 groups—one control group and 3 treatment groups. 1) untreated N2a cells (the control group), 2) N2a cells treated with ligand 1 (N2a+ligand 1), 3) N2a cells transfected mAPP with the (lipofectamine) (20 μM final concentration for 6 hrs (mAPP), 4) N2a cells transfected with mAPP cDNA for 6 hrs, treated with ligand 1 (mAPP+ligand 1 treatment group), N2a cells treated with ligand 1 for 24 hrs and then treated with the mAPP cDNA for 6 hrs (ligand 1+mAPP treatment group). […]
ELISA Ligand based BACE1 inhibition of Aβ 40 and 42. […] For each sample, Aβ1-40 and Aβ1-42 were measured with commercial colorimetric ELISA kits (Biosource International, Camarillo, CA, USA) specific for human. […] Protein concentrations of the homogenates were determined following the […], and Aβ was expressed as pg Aβ/mg protein.

[2] = system: mAPP N2a cells; assay: qRT-PCR mRNA expression in mAPP N2a cells treated with ligand 1; format: cell-based, mouse
Description: The N2a cells grown for 6 days in a serum-free medium (1:1 mixture of DMEM and OptiMEM, plus penicillin and streptomycin (Invitrogen, Carlsbad, CA, USA) until the cells developed neuronal processes. As shown in (FIG. 10), these cells were used for 4 groups—one control group and 3 treatment groups. 1) untreated N2a cells (the control group), 2) N2a cells treated with ligand 1 (N2a+ligand 1), 3) N2a cells transfected mAPP with the (lipofectamine) (20 μM final concentration for 6 hrs (mAPP), 4) N2a cells transfected with mAPP cDNA for 6 hrs, treated with ligand 1 (mAPP+ligand 1 treatment group), N2a cells treated with ligand 1 for 24 hrs and then treated with the mAPP cDNA for 6 hrs (ligand 1+mAPP treatment group). As shown in (FIG. 10), the inventors performed 4 independent cell cultures and treatments for all experiments (n=4).
mRNA levels of mitochondrial dynamics and mitochondrial biogenesis and synaptic genes. Using the reagent TriZol (Invitrogen), the inventors isolated total RNA from 4 independent treatments of N2a cells (n=4) from control (untreated N2a cells) and experimental treatments (N2a cells treated with Ligand 1; N2a cells transfected with mAPP; N2a cells transfected with mAPP and then treated with Ligand 1. Using primer express Software (Applied Biosystems), the inventors designed the oligonucleotide primers for the housekeeping genes β-actin, GDPH; APP-related genes (APP, BACE1 and PSN1); mitochondrial structural genes; fission (Drp1 and Fis1); fusion genes (MFN1, MFN2, Opa1) (54), mitochondrial biogenesis genes (PGC1α, Nrf1, Nrf2, and Tfam) (Manczak et al., 2019), and synaptic proteins (SYN, PSD95 and MAP2). The primer sequences and amplicon sizes are listed in (Table 1). With SYBR-Green chemistry-based quantitative real-time RT-PCR, the inventors measured mRNA expression of the genes mentioned above as described by Manczak et al. 2019(54). Briefly, 2 μg of DNAse-treated total RNA was used as starting material, to which the inventors added 1 μl of oligo (dT), 1 μl of 10 mM dNTPs, 4 μl of 5× first strand buffer, 2 μl of 0.1 M DTT, and 1 μl RNAse outout. The reagents RNA, dT), and dNTPs were mixed first, then heated at 65° C. for 5 min, and finally chilled on ice until the remaining components were added. The samples were incubated at 42° C. for 2 min, and then 1 μl of Superscript II (40 U/μl) was added. The samples were then incubated at 42° C. for 50 min, at which time the reaction was inactivated by heating at 70° C. for 15 min.
Quantitative real-time PCR amplification reactions were performed in N2a cells in an ABI Prism 7900 sequence detection system (Applied Biosystems, Foster City, CA) in a 25-μl volume of total reaction mixture. The reaction mixture consisted of 1×PCR buffer containing SYBR-Green; 3 mM MgCl2; 100 nm of each primer; 200 nm of dATP, dGTP, and dCTP each; 400 nm of dUTP; 0.01 U/μl of AmpErase UNG; and 0.05 U/μl of AmpliTaq Gold. A 20 ng cDNA template was added to each reaction mixture.
The CT-values of β-actin was tested to determine the unregulated endogenous reference gene in N2a cells that were treated with Aβ and protective molecules, and in untreated N2a cells. In the latter case, the CT-value was similar in untreated and N2a cells treated with MTAs and Aβ. The CT-value is an important quantitative parameter in real-time PCR analysis as described in Gutala and Reddy (2004) (55). All RT-PCR reactions were carried out in triplicate, with no template control. The PCR conditions were: 50° C. for 2 min and 95° C. for 10 min, followed by 40 cycles of 95° C. for 15 sec and 60° C. for 1 min. The fluorescent spectra were recorded during the elongation phase of each PCR cycle. To distinguish specific amplicons from non-specific amplifications, a dissociation curve was generated. […]

[3] = N2a + mAPP + ligand1 relative to mAPP N2a cells
[4] = N2a + mAPP + ligand1 relative to mAPP N2a cells, listed as ligand 1
[5] = N2a + mAPP + ligand1 relative to mAPP N2a cells, listed as ligand1
[6] = N2a + mAPP + ligand1 relative to mAPP N2a cells, negative = decrease
[7] = N2a + mAPP + ligand1 relative to untreated N2a cells
[8] = ligand 1 treated mAPP cells relative to mAPP cells, size of the decrease, P<0.05

## [(6As,8S,10aS,12aS)-10a, 12a-dimethyl-2-oxo-3,4,4a,4b,5,6,6a,7,8,9,10,10b,11,12-tetradecahydro-1H-naphtho[2,1-f]quinolin-8-yl] 4-[4-[bis(2-chloroethyl)amino]phenyl]butanoate [Ligand 1]
[1]; P=0.005
  Aβ42 level: significantly lower; also recorded: reduced
[1]; soluble, P=0.01
  Aβ40 level: decreased; also recorded: reduced
[2]; [3]
  mRNA fold change Mfn1: 1.3 fold
  mRNA fold change OPA1: 1.2 fold
[2]; [4]
  mRNA fold change Mfn2: 1.5 fold
  mRNA fold change Nrf1: 2.1 fold
  mRNA fold change Nrf2: 2.1 fold
  mRNA fold change PGC1a: 2.0 fold
  mRNA fold change PSD95: 1.3 fold
  mRNA fold change Synaptophysin: 1.9 fold
  mRNA fold change TFAM: 1.8 fold
[2]; [5]
  mRNA fold change Mfn2: 1.5* fold
  mRNA fold change Nrf1: 2.1** fold
  mRNA fold change Nrf2: 2.1** fold
  mRNA fold change PGC1a: 2.0** fold
  mRNA fold change PSD95: 1.8* fold
  mRNA fold change Synaptophysin: 1.9* fold
  mRNA fold change TFAM: 1.8* fold
[2]; [6]
  mRNA fold change APP: −1.5* fold
  mRNA fold change BACE1: −1.4* fold
  mRNA fold change Drp1: −2.3** fold
  mRNA fold change Fis1: −1.5* fold
  mRNA fold change Presenilin1: −1.5* fold
[2]; [7]
  mRNA fold change APP: 1.3 fold
  mRNA fold change BACE1: 1.1 fold
  mRNA fold change Drp1: 1.1 fold
  mRNA fold change Fis1: 1.0 fold
  mRNA fold change Mfn1: −1.2 fold
  mRNA fold change Mfn2: 1.1 fold
  mRNA fold change Nrf1: 1.2 fold
  mRNA fold change Nrf2: 1.4 fold
  mRNA fold change OPA1: 1.1 fold
  mRNA fold change PGC1a: 1.2 fold
  mRNA fold change PSD95: 1.3 fold
  mRNA fold change Presenilin1: −1.2 fold
  mRNA fold change Synaptophysin: 1.3 fold
  mRNA fold change TFAM: 1.5 fold
[2]; [8]
  APP mRNA, fold decreased: 1.5 fold
  BACE1 mRNA, fold decreased: 1.4
  PSN1 mRNA, fold decreased: 1.5
[2]; mAPP+ligand 1 treated cells relative to mAPP cells, size of the decrease, P<0.005
  Drp1 mRNA, fold reduced: 2.3 fold
[2]; mAPP+ligand 1 treated cells relative to mAPP cells, size of the decrease, P<0.05
  Fis1 mRNA, fold reduced: 1.5 fold
